Experimental data from patent US4246194A, “Amino-hydroxy-alkyl sulfonic acid-zwitterions” (priority 1979, dated 1981).

Legend:
[1] = cited from earlier work
[2] = use as buffer in biological research; cited from earlier work
[3] = solubility of the zwitterion on acidification; assay type: physicochemical; conditions: acidified to pH 1.5 with HCl, water
[4] = test system: NIL B, SV-NIL and BALB/C 3T3 cells; test: effectiveness as cell and tissue culture buffers (overall, cell lines tested); conditions: selected media; for effectiveness as culture buffer compared with HEPES: vs HEPES; for effectiveness as culture buffer compared with NaHCO3:CO2 system (control): vs NaHCO3:CO2 control
Description: The cell lines used in the tests were NIL B, a hamster fibroblast line; SV-NIL, an SV40-virus transformed line derived from NIL B; and BALB/C 3T3, a mouse embryo tissue. The cells were seeded into T-flasks (screw-capped polystyrene flasks) with a 25 cm^2 area. On the control flask (CO2 atmosphere), the cap was kept loose to allow gas circulation while the caps on the experimental culture flasks were screwed on tightly. The medium used in these tests was Eagle's MEM 4X (see pages 108-112 of Paul, Cell and Tissue Culture, 5th Edition, 1975), in an Earle's salt solution (page 95 of same text) modified to contain 2.2 g/l of bicarbonate for the experimental buffers. The control was not so modified. The control flask was incubated at 37° C. in an atmosphere of 5% CO2 in air whereas the other flasks were incubated at 37° C. in an air atmosphere. The medium was changed every other day.
At appointed times, triplicate flasks were harvested using trypsin, and the approximate cell population was determined using a Coulter electronic particle counter.

Structure (SMILES) | effectiveness as culture buffer compared with HEPES [4] | effectiveness as culture buffer compared with NaHCO3:CO2 system (control) [4] | further results
NC(CO)(CO)CO [Tris, tris-(hydroxy-methyl)aminomethane] | – | – | buffering capacity ([1]; below pH 7.5): poor buffering capacity; reactivity ([1]; primary aliphatic amine): considerable reactivity; inhibitory side effect [2]: often inhibitory
O=S(=O)(O)CC(O)CN1CCN(CC(O)CS(=O)(=O)O)CC1 (centres unmarked) [Example 4, Piperazine-N,N'-2-hydroxypropyl sulfonic acid (dihydrate)] | – | – | solubility [3]: very insoluble
O=S(=O)(O)CC(O)CN1CCN(CCO)CC1 (centres unmarked) [Example 3, N-hydroxyethyl piperazine-N'-2 hydroxypropyl sulfonic acid] | as good as, if not better than | as good as, if not better than | –
O=S(=O)(O)CC(O)CN1CCOCC1 (centres unmarked) [Example 6, 3-(N-morpholino)-2-hydroxypropyl sulfonic acid] | about as good as | not as good as | –
